Results from ChEMBL document CHEMBL1201862, “PubChem BioAssay data set” (2004).
Calls of active or inactive are those of the source.

How the values were obtained:
[1] = inhibitors acting on PAX2 in cells – cell-based, plate reader, dry powder samples, selectivity assay for PAX8 inhibitor project, dose response (AID 743048); type: functional;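 note: HEK293 cells carrying a WT1 promoter luciferase reporter driven by expressed Pax2; potency is for inhibition of Pax2 driven reporter signal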
[2] = test system: A-375; assay: proliferation inhibition in MITF-low A375 cells – cell-based, cherry-pick samples, set 2, counter-screen for MITF modulator project, dose response (AID 540335); type: functional; details: Homo sapiens
[3] = OVCAR4 cell viability loss – plate reader, dry powder, SA11, cytotoxicity control for PAX8 inhibitor project, dose response (AID 743150); type: functional, cell-based; details: OVCAR-4
[4] = target: Paired box protein Pax-8 (Homo sapiens, UniProt Q06710); assay: PAX8 transcriptional activity inhibition in RMG-I – RMG-I cells, luciferase, cherry-pick, dose response (AID 687027); type: functional, cell-based;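 note: luciferase reporter driven by Pax8 target thyroperoxidase promoter measured by SteadyGlo luminescence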
Chain of Paired box protein Pax-8 (Q06710 whole entry): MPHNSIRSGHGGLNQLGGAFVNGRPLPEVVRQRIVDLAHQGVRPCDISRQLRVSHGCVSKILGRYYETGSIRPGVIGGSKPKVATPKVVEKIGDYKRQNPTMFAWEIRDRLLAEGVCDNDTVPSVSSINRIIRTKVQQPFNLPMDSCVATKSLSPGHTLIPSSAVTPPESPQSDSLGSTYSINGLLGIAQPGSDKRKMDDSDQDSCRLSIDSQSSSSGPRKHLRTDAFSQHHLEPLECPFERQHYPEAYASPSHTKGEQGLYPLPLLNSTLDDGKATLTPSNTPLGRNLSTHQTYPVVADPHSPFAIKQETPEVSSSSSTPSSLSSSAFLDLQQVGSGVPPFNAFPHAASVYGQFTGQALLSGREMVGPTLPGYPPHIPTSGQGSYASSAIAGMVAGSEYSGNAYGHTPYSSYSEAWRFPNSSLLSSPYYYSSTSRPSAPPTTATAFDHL

[5] = A2780 cell killing – plate reader, dry powder samples, cytotoxicity control, dose response (AID 743046); type: functional, cell-based
[6] = PAX8-dependent cell viability loss – plate reader, dry powder, dose response (AID 743049); type: functional, cell-based
[7] = test system: A-375; assay: MITF: Counter assay: A375 proliferation Measured in Cell-Based System Using Plate Reader - 2084-03_Inhibitor_Dose_DryPowder_Activity. [Related pubchem assays (depositor defined):AID488944]; type: functional; details: Homo sapiens
[8] = target: T1, Protein RecA (Mycobacterium tuberculosis, UniProt P9WHJ3); assay: Fluorescence Cell-Free Homogeneous Dose Retest to Identify Inhibitors of RecA-Intein Splicing Activity. [Related pubchem assays (depositor defined):AID2097, AID2223, AID489010, AID492950]; type: functional
T1 sequence (P9WHJ3 whole entry): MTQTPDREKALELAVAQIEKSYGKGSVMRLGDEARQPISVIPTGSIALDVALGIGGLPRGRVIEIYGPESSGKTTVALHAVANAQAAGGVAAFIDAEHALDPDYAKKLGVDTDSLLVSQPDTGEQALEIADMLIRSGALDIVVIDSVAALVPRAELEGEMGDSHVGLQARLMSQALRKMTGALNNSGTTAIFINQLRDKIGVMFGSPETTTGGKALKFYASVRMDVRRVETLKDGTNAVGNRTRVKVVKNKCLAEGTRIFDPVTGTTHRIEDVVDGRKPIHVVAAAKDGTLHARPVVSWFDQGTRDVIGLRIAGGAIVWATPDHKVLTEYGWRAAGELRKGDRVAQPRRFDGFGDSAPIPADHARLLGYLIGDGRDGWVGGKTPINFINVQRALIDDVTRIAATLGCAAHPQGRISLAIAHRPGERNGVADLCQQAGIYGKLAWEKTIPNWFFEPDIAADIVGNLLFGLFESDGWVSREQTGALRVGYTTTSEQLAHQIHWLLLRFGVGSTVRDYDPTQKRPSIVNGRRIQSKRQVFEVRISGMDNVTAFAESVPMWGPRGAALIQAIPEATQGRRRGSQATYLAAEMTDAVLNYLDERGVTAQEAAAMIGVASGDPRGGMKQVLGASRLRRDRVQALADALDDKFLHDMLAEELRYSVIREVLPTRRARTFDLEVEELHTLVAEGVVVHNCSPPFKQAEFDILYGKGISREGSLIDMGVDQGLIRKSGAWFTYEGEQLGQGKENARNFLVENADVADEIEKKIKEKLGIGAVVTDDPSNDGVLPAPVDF

[9] = test system: H4; assay: Luminescence Cell-Based Dose Response HTS to Identify Activators of 5'UTR Stem-Loop Driven Prion Protein mRNA Translation in H4 Neuroglioblastoma Cells. [Related pubchem assays: 1829 (Project Summary), 1814 (Primary HTS)]; type: functional; details: Homo sapiens
[10] = toxicity toward immortalized ovarian surface epithelium – cell-based, plate reader, dry powder samples, cytotoxicity control for PAX8 inhibitor project, dose response (AID 743045); type: functional
[11] = COV434 cell viability loss – plate reader, dry powder, SA7, cytotoxicity control for PAX8 inhibitor project, dose response (AID 743145); type: functional, cell-based
[12] = target: T2, Microphthalmia-associated transcription factor (Homo sapiens, UniProt O75030); assay: reducers of TRPM1 reporter luminescence, concentration series – cell-based, SK-MEL-5, cherry-picked, set 3, MITF inhibitor project, dose response (AID 493073); type: functional;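 note: SK-MEL-5 melanoma cells with luciferase driven by the MITF target TRPM1 promoter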
T2 sequence (O75030 whole entry): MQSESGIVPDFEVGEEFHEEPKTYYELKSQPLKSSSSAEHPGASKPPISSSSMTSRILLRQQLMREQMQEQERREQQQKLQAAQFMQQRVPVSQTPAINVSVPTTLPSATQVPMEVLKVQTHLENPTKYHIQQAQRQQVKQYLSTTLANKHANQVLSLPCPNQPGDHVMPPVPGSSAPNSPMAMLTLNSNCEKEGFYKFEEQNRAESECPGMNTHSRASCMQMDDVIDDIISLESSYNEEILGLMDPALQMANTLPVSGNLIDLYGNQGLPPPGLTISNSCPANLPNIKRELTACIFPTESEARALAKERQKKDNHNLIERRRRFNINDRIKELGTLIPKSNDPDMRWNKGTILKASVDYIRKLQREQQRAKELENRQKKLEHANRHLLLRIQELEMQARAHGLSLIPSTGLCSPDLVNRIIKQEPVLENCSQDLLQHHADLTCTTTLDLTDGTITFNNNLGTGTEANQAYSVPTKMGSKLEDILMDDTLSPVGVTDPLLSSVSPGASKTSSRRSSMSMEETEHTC

[13] = Luminescence Cell-Based Dose Response HTS to Identify Activators of Luciferase Translation or Activity in H4 […] Cells. [Related pubchem assays: 1829 (Project Summary), 1814 (Primary HTS)]; type: functional
[14] = HPDE-C7 pancreatic duct cell viability loss – fluorescence, HTS (AID 430); type: functional, cell-based; details: Homo sapiens
[15] = viability loss of HPDE-C7K cells – cell-based, fluorescence, HTS, primary screen (AID 431); type: functional; details: Homo sapiens
[16] = COV362 cell viability loss – plate reader, dry powder, SA12, cytotoxicity control for PAX8 inhibitor project, dose response (AID 743144); type: functional, cell-based
[17] = OV-90 cell viability loss – plate reader, dry powder, SA8, PAX8 inhibitor project, dose response (AID 743149); type: functional, cell-based
[18] = PAX5 cellular inhibition readout – cell-based, plate reader, dry powder samples, selectivity assay for PAX8 inhibitor project, dose response (AID 743047); type: functional;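 note: HEK293 cells carrying a Pax5 driven CD19 promoter luciferase reporter; potency of inhibitors that lower reporter luminescence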
[19] = target: T3, Replicative DNA helicase DnaB (Mycobacterium tuberculosis, UniProt P9WMR3); assay: DnaB intein splicing inhibitors, dose response, biochemical, cell-free fluorescence (AID 449749); type: functional
T3 sequence (P9WMR3 whole entry): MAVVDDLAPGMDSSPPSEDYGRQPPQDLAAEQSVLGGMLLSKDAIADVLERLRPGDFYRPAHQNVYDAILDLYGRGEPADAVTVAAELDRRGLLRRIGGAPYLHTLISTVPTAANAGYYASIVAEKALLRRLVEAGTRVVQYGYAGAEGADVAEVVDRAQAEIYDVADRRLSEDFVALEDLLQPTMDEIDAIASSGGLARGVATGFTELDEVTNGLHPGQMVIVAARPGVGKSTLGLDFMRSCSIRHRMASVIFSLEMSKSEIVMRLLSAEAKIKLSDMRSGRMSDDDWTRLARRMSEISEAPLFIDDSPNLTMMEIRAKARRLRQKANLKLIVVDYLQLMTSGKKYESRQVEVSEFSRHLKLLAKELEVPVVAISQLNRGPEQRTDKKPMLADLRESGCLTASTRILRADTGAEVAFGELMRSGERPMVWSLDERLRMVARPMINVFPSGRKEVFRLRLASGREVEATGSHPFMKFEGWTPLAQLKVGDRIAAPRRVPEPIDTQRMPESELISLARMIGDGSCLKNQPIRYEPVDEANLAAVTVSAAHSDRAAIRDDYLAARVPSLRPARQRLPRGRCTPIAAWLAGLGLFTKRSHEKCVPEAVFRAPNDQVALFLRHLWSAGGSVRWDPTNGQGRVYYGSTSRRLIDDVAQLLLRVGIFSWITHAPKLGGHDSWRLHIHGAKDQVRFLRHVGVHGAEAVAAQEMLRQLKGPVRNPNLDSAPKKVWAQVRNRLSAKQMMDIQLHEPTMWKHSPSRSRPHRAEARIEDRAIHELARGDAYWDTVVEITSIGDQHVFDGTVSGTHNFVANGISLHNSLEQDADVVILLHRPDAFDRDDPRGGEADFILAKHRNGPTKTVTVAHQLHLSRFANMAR

[20] = IGROV1 cell killing – plate reader, dry powder samples, PAX8 inhibitor project, dose response (AID 743043); type: functional, cell-based; details: IGROV-1
[21] = Luminescence Cell-Based Dose Retest to Confirm Inhibitors of Cancer Stem Cells. [Related pubchem assays (depositor defined):AID2717, AID2721]; type: functional; details: Homo sapiens
[22] = viability loss of HMLE_sh_eGFP cells – cell-based, luminescence, counter-screen for HMLE_sh_ECad selective toxicity project, dose response (AID 463074); type: functional, Homo sapiens;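 note: HMLE human mammary epithelial cells expressing control shRNA against eGFP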
[23] = test system: HeLa; assay: ATP-based viability loss in HeLa cells – cell-based, CellTiter-Glo luminescence, cherry-pick samples, cytotoxicity control for MITF activator project, dose response (AID 540259); type: functional; details: Homo sapiens
[24] = target: T4, Hexokinase HKDC1 (Homo sapiens, UniProt Q2TB90); assay: analog inhibition of human HKDC1 activity – biochemical, set 2, SAR follow-up (AID 588355); type: functional
T4 sequence (Q2TB90 whole entry): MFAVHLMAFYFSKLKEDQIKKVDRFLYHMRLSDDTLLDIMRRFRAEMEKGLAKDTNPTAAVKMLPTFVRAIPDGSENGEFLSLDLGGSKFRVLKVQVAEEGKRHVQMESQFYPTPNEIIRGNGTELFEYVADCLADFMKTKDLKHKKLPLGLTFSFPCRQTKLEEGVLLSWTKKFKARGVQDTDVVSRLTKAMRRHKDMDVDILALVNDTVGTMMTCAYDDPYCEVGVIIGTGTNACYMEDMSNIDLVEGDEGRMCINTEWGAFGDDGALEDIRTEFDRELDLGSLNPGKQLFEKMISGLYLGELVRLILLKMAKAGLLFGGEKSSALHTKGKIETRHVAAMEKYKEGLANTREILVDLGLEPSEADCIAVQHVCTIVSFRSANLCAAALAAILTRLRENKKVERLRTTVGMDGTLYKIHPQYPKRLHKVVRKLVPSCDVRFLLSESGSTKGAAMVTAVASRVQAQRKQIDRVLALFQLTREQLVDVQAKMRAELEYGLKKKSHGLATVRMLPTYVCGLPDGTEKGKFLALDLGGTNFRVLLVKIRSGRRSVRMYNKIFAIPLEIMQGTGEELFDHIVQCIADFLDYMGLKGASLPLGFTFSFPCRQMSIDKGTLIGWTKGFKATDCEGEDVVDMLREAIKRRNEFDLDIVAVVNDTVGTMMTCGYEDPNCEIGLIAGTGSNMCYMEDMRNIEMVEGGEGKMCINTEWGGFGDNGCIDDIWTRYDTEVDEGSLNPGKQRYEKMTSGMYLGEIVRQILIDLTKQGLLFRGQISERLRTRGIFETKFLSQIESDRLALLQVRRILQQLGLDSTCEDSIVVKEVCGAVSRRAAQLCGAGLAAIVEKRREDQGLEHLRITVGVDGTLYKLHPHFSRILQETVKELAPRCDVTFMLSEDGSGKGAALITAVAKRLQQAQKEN

[25] = target: T5, Hexokinase-1 (Homo sapiens, UniProt P19367); assay: hexokinase 1 activity inhibitors, potency – biochemical, set 2, resazurin fluorescence coupled readout, selectivity assay for HKDC1 inhibitor project, SAR follow-up (AID 588356); type: functional
T5 sequence (P19367 whole entry): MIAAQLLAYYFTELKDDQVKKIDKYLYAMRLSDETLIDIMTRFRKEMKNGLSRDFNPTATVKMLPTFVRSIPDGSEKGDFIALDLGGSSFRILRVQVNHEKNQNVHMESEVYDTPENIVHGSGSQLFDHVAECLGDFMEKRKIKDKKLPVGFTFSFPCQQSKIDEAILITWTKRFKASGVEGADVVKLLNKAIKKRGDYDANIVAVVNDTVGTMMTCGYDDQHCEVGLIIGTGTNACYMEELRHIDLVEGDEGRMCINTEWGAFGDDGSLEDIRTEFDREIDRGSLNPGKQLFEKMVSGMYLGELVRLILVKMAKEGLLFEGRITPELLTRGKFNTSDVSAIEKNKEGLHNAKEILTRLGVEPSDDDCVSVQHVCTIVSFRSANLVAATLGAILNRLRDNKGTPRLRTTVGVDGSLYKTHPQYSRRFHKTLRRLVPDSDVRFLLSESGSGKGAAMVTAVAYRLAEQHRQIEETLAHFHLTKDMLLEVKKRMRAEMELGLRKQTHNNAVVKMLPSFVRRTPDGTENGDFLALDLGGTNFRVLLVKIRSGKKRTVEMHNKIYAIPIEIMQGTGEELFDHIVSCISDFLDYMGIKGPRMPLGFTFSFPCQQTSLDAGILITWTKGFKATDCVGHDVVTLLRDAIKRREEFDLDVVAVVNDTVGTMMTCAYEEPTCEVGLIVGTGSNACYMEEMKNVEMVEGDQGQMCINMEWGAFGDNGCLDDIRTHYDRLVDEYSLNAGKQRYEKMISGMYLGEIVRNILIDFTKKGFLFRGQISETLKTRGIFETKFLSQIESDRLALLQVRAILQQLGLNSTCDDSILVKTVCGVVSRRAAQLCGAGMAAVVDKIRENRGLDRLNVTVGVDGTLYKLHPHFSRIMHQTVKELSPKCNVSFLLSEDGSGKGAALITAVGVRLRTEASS

For `Cn1nnnc1Sc1ncnc2scc(-c3ccc(F)cc3)c12`, the AC50 [1] was 28.6 µM (active), the AC50 [2] was > 35 µM (active) and the AC50 [3] was 39.7 µM (active). For the same molecule, the AC50 [4] was 4.15 µM (active), the AC50 [5] was 29.8 µM (active) and the AC50 [6] was 26.6 µM (active). For the same molecule, the AC50 [7] was > 35 µM (active), the EC50 [8] was 11.2 µM (active) and the EC50 [9] was > 120 µM (not active). For the same molecule, the AC50 [10] was 68.6 µM (active), the AC50 [11] was 37.1 µM (active) and the AC50 [12] was 8.1 µM (active). For the same molecule, the EC50 [13] was 0.116 µM (active), the EC50 [14] was 5.23 µM (active) and the EC50 [15] was 5.32 µM (active). For the same molecule, the AC50 [16] was 48 µM (active), the AC50 [17] was 44.6 µM (active) and the AC50 [18] was 36.4 µM (active). For the same molecule, the AC50 [19] was 93 µM (active) and the AC50 [20] was 35.6 µM (active).

For `O=C(NC(=S)Nc1ccc2oc(=O)ccc2c1)c1ccc(-c2cccc(Cl)c2Cl)o1`, the AC50 [21] was 2.77 µM (active) and the AC50 [22] was 39.2 µM (active).

For `Nc1nc(-c2cc(-c3ccccc3)no2)cs1`, the AC50 [23] was 144 µM (active).

With `COc1cc2c(cc1OC)-c1cc(NCc3ccccc3F)nc(=O)n1CC2` the IC50 [24] was > 80 µM (inactive) and the IC50 [25] was > 80 µM (inactive).
